The values that follow come from patent US12265087B2, “Olfactory receptor as microglia marker and use thereof” (DAEGU GYEONGBUK INSTITUTE OF SCIENCE AND TECHNOLOGY, priority 2019, dated 2025).

Experiment [1] concerns Hana3A cells expressing Olfr110. Kind of experiment: Boyden chamber chemotaxis assay, Hana3A cells expressing Olfr110. The experiment is classed as cell-based. The settings on record: 2-PF 10, 100 and 1000 μM. The method, then:
Chemotaxis was measured using a multi-well Boyden chamber. More specifically, a polycarbonate filter (8 μm pore; #101-8; Neuroprobe) was coated with […] fibronectin (Sigma-Aldrich) in PBS for 2 hours, and the coated filter was installed in a Boyden chamber. In addition, the bottom side of a plate was filled with serum-free DMEM containing 2-PF or a culture supernatant. Subsequently, microglia or Hana3A cells were transfected with an OR construct, and then suspended in serum-free DMEM. The microglia were kept at 37° C. for 4 hours, and the Hana3A cells for 8 hours. Cells that migrated to the bottom surface were fixed with 4% PFA, and stained with hematoxylin for 10 minutes. The migrated cells were counted under a light microscope in five randomly selected fixed […] fields (200×) using a scored eyepiece. A chemotaxis index was defined as the migrated cell number normalized against the untreated group.

Experiment [2] relates to microglia. Kind of experiment: Fura-2/AM calcium imaging of microglia. The experiment is classed as cell-based, mouse. The settings on record: 2-PF 100, 300, 1000 μM. As for the experimental part: Twenty-four hours after newly isolated microglia were mounted on poly-D-lysine-coated 18-mm aperture microscope cover glasses (#0111580; Marienfeld), the microglia were incubated in a superfusion chamber for 30 minutes. The chamber contained 4 μM of Fura-2/AM (Ca^2+-sensitive fluorescent dye; #F1221; Thermo Fisher Scientific) in Ringer's solution (115 mM NaCl, 2.5 mM KCl, 1 mM CaCl2, 1.5 mM MgCl2, 4.5 mM HEPES, pH 7.4) filtered through a filter with a 0.22-μm pore. After calcium staining culture, the chamber was placed under an inverted microscope and washed with Ringer's solution for 20 minutes prior to […] treatment. Here, a flow rate of the solution is 12 ml/min. Subsequently, primary microglia were treated with 300 μM ATP (#A2383; Sigma Aldrich) for 5 seconds. After washing for 5 minutes, the primary microglia were treated with a 100 μM 2-PF solution for 5 seconds. This step was accomplished with two different concentrations (300 and 1000 μM) of 2-PF solution. Finally, the microglia were treated with a 300 μM ATP solution for 5 seconds. An emitted fluorescent material was photographed every 2 seconds using a CCD camera. Pseudo-color images were converted using fractional fluorescence changes (ΔF/F, Δ[Ca^2+]i). In addition, these images show changes in intracellular calcium ions. […]

The next experiment concerns Olfr110. In words: Immunostaining of Olfr110 expression after treatment. The experiment is classed as cell-based, mouse. As for the experimental part: Subsequently, cells were washed in PBS, and fixed with 4% paraformaldehyde (#6148; Sigma Aldrich) for 5 minutes. The cells were then incubated in PBS containing 4% normal horse serum (#008-000-121; Jackson ImmunoResearch) and 0.1% TWEEN® 20 (#P9416; Sigma-Aldrich) at room temperature for 1 hour. Afterward, the cells were […] at 4° C. overnight with primary antibodies listed below. The antibodies are as follows: Olfr110 (rabbit-anti-Olfr110; 1:10,000; #ab177327; Abcam), Iba-1 (goat-anti-Iba-1; 1:1,000; #ab5076; Abcam), and GFAP (mouse-anti-GFAP; 1:1,000; #556330; BD Biosciences). Samples were incubated in a PBS solution containing 0.1% TWEEN® 20 (#P9416; Sigma-Aldrich) with secondary antibodies at room temperature for 1 hour. The secondary antibodies are as follows: Cy3-conjugated donkey anti-rabbit IgG (1:1,000; #711-165-152; Jackson ImmunoResearch), Alexa488-conjugated donkey anti-goat IgG (1:1,000; #705-545-147; Jackson ImmunoResearch), and Alexa488-conjugated donkey anti-mouse IgG (1:1,000; #715-545-150; Jackson ImmunoResearch). Afterward, the cells were mounted with a Vectashield fluorescent material containing DAPI (#H-1200; Vector Laboratories), and images were obtained using a confocal laser scanning microscope, LSM 700, and the ZEN software (Zeiss). […]

A further experiment relates to primary microglia. In words: cAMP ELISA in primary microglia. The experiment is classed as cell-based, mouse. The settings on record: 2-PF 0, 100, 500 μM. As for the experimental part:
Primary microglia were seeded in 48-well plates (2×10^5 cells/well) and treated with 30 μM forskolin (#F3917, Sigma Aldrich) or 2-PF (10, 100, 500 μM) for 30 minutes. To confirm the effect of an inhibitor, 1 mM of S Q22536 (#17318-31-9; Calbiochem) was pretreated first for 30 minutes. The cells were lysed in 0.1 M of HCl with 1% Triton X 100 for 10 minutes, the lysate was centrifuged at 600×g for 2 minutes. The resulting supernatant was directly used for cAMP analysis with a cAMP ELISA kit (Enzo Life Science) according to the manufacturer's protocol. An optical density at 405 nm was measured using a VersaMax microplate reader (Molecular Devices).
(In general: In an ELISA, binding on a coated surface is turned into a signal by an enzyme label.)

In experiment [3] the test system is microglia. Kind of experiment: GFP intensity / morphology of microglia in CX3CR1 GFP/+ mice. The experiment is classed as in vivo, mouse. To be noted: 2-PF treated CX3CR1 GFP/+ mice. The method, then: To analyze a morphological change in microglia activation, 9-week-old CX3CR1^GFP/+ mice were used. Two hours after an IP containing or not containing 2-PF was injected into two mice, brain sections were collected by cryosection. A 40-μm-thick brain tissue fragment was prepared by […], and a GFP signal of microglia was measured using a 40× magnification confocal microscope. A GFP-pixel signal of microglia was analyzed using Zeiss ZEN Software (Zeiss).

For `CCCCCc1ccco1` [2-PF, 2-pentylfuran], the “mobility of Olfr110 cells (chemotaxis assay)” value in experiment [1] is “increased in mobility in a concentration-dependent manner”. Further, in the experiment on microglia [2], the “intracellular calcium ion levels” value is given as “increased according to an injection amount”. Besides, the Olfr110 protein level result in the experiment on Olfr110 was “significantly increases”. Also, in the experiment with primary microglia, the cAMP concentration result is recorded as “increased by 2-PF treatment in a concentration dependent manner”. Also, the “intensity of GFP expression of microglia” value in the experiment on microglia [3] was “highly increased”.
